These are literature values, as cited in patent US20220000750A1, “THE PROCESS FOR THE PREPARATION AND USE OF HAIR TREATMENT COMPOSITIONS CONTAINING ORGANIC C1-C6 ALKOXY SILANES” (Henkel AG & Co. KGaA, priority 2019, published 2022).

Molecules are shown by their SMILES.

The conditions of the data set: 25° C.

As for `O=C([O-])c1c(Cl)c(Cl)c(Cl)c(Cl)c1-c1c2c(Br)cc(=O)c(Br)c-2oc2c(Br)c(O)cc(Br)c12.O=C([O-])c1c(Cl)c(Cl)c(Cl)c(Cl)c1-c1c2c(Br)cc(=O)c(Br)c-2oc2c(Br)c(O)cc(Br)c12.[Na+].[Na+]` [Acid Red 92, disodium salt of 3,4,5,6-tetrachloro-2-(1,4,5,8-tetrabromo-6-hydroxy-3-oxoxanthen-9-yl)benzoic acid], the solubility in water entry was “greater than 10 g/L”.
In the case of `Nc1cc(S(=O)(=O)[O-])cc2cc(S(=O)(=O)[O-])c(N=Nc3ccccc3)c(O)c12.[Na+].[Na+]` [Acid Red 33, diantrium salt of 5-amino-4-hydroxy-3-(phenylazo)-naphthalene-2,7-disulphonate], the solubility in water is 2500 µg/mL.
For the compound `O=S(=O)([O-])c1ccc(N=Nc2c(O)ccc3ccccc23)cc1.[Na+]` [Acid Orange 7, sodium salt of 4-[(2-hydroxy-1-naphthyl)azo]benzene sulphonate], the solubility in water entry is reported as “more than 7 g/L”.
Regarding `CCN(Cc1cccc(S(=O)(=O)[O-])c1)c1ccc(C(=C2C=CC(=[N+](CC)Cc3cccc(S(=O)(=O)[O-])c3)C=C2)c2ccccc2S(=O)(=O)[O-])cc1.[Na+].[Na+]` [Acid Blue 9], the solubility in water result was “more than 20 % by weight”.
`O=C([O-])C1=NN(c2ccc(S(=O)(=O)[O-])cc2)C(=O)C1N=Nc1ccc(S(=O)(=O)[O-])cc1.[Na+].[Na+].[Na+]` (centres unmarked) [Acid Yellow 23, trisodium salt of 4,5-dihydro-5-oxo-1-(4-sulfophenyl)-4-((4-sulfophenyl)azo)-1H-pyrazole-3-carboxylic acid]: the “solubility in water (in words)” value was “highly soluble”.
